# US20240010635A1, “NOVEL INDIRUBIN DERIVATIVES HAVING HETEROBICYCLIC MOIETIES AND THE USE THEREOF” (priority 2022, published 2024)
# Where two headings read alike, the source gives them in different places.
# Tests used:
# Molm-13 = experiment: Cell proliferation inhibition in AML cell line Molm-13 (Alamar Blue); assay type: cell-based; conditions: Homo sapiens, Molm-13, 72 hours, read-out: Cell proliferation inhibitory activity (GI50) Molm-13
# Text: (§1) Cell proliferation inhibition experiments on acute myeloid leukemia (AML) cell lines tested FLT3 inhibitory activity using MV4-11, Molm-13, and Molm-14 cells, which are FLT3-ITD-expressed AML cell lines. The origin of all cell lines is human-derived cell lines, and the place of purchase and culture conditions of each cell line are as follows.
# (§2) MV4-11 cells were purchased form the American Type Culture Collection (ATCC, Rockville, MD, USA, cat #CRL-9591), Molm-13 (DSMZ, cat #ACC554), Molm-14 (DSMZ, cat #ACC777), and then cultured in RPMI 1640 medium (Corning Co. 10-040-CV) supplemented with 10% fetal bovine serum, 1% penicillin/streptomycin and 4 mM L-glutamine (Life Technology, GrandIsland, NY).
# (§3) Cell viability was evaluated by Resazurin redox-based analysis method with Alamar Blue Assay Kit (Invitrogen, USA). Specifically, for MV4-11, Molm-13 and Molm-14 cells, 8000 cells were plated on 384-well plates in 45 μl of medium. Compounds were treated with dimethyl sulfoxide (DMSO) as a negative control group. After 3 days (72 hours) of compound addition, 5 μl of Alamar Blue kit reagent was added to each well of 384-well plate and incubated at 37° C. for 2 hours in a humidified CO2 incubator. After incubation, fluorescence density (Flu) was measured at a wavelength of 544 nm and 590 nm using SpectraMax iD3 Multi Mode Microplate Reader (Molecular Devices, ID3-STD). GI50 was calculated by nonlinear regression using Prism version 5.01 (GraphPad, LaJolla, CA, USA).
# Molm-14 = experiment: Cell proliferation inhibition in AML cell line Molm-14 (Alamar Blue); assay type: cell-based; conditions: Homo sapiens, Molm-14, 72 hours, read-out: Cell proliferation inhibitory activity (GI50) Molm-14
# Text: as §1, §2, §3
smiles,measurement,setting,value
"O=C1Nc2ccccc2/C1=C1/Nc2ccccc2/C1=N\OCCN1C[C@H]2C[C@@H]1CN2 [Example 4, (2Z,3E)-3-((2-((1R,4R)-2,5-diazabicyclo[2.2.1]heptan-2-yl)ethoxy)imino)-[2,3′-biindolinylidene]-2′-one]",GI50,Molm-13; pM,40 pM
same,GI50,Molm-14; pM,30 pM
"O=C1Nc2ccccc2/C1=C1/Nc2ccccc2/C1=N\OCCN1C[C@@H]2C[C@H]1CN2 [Example 5, (2Z,3E)-3-((2-((1S,4S)-2,5-diazabicyclo[2.2.1]heptan-2-yl)ethoxy)imino)-[2,3′-biindolinylidene]-2′-one]",GI50,Molm-13,1780 pM
same,GI50,Molm-14,1660 pM
"O=C1Nc2ccc(F)cc2/C1=C1/Nc2ccccc2/C1=N\OCCN1C[C@H]2C[C@@H]1CN2 [Example 9, (2Z,3E)-3-((2-((1R,4R)-2,5-diazabicyclo[2.2.1]heptan-2-yl)ethoxy)imino)-5′-fluoro-[2,3′-biindolinylidene]-2′-one]",GI50,Molm-13; pM,500 pM
same,GI50,Molm-14; pM,470 pM
"O=C1Nc2ccc(F)cc2/C1=C1/Nc2ccccc2/C1=N\OCCN1C[C@@H]2C[C@H]1CN2 [Example 10, (2Z,3E)-3-((2-((1S,4S)-2,5-diazabicyclo[2.2.1]heptan-2-yl)ethoxy)imino)-5′-fluoro-[2,3′-biindolinylidene]-2′-one]",GI50,Molm-13,1390 pM
same,GI50,Molm-14,1860 pM
"O=C1Nc2ccc(Cl)cc2/C1=C1/Nc2ccccc2/C1=N\OCCN1C[C@H]2C[C@@H]1CN2 [Example 11, (2Z,3E)-3-((2-((1R,4R)-2,5-diazabicyclo[2.2.1]heptan-2-yl)ethoxy)imino)-5′-chloro-[2,3′-biindolinylidene]-2′-one]",GI50,Molm-13; pM,162 pM
same,GI50,Molm-14; pM,100 pM
"O=C1Nc2ccc(Br)cc2/C1=C1/Nc2ccccc2/C1=N\OCCN1C[C@H]2C[C@@H]1CN2 [Example 13, (2Z,3E)-3-((2-((1R,4R)-2,5-diazabicyclo[2.2.1]heptan-2-yl)ethoxy)imino)-5′-bromo-[2,3′-biindolinylidene]-2′-one]",GI50,Molm-13; pM,200 pM
same,GI50,Molm-14; pM,170 pM
